Entries after “also recorded” stand apart in the source; their conditions may differ. Where two headings read alike, the source gives them in different places.
What was measured:
[1] = system: mitochondrial DNA (ND1, 16S rRNA); assay: Mitochondrial DNA analysis in mouse liver; assay type: in vivo; conditions: normalized with HK2
Experimental: Quantification of mtDNA was performed as described (BCurr Protoc Mouse Biol 2017; 7:47-54). Snap frozen mouse liver was homogenized and total cellular DNA was extracted with a QIAamp DNA kit (Qiagen) followed b PCR with the primers below: […]

Sirtuin1 mRNA = assay: qPCR primary human hepatocytes, Sirtuin1 mRNA; assay type: cell-based; conditions: NCT 5, 15, 40 μM
Experimental: (§1) Experiments with primary human hepatocytes were performed by CN-Bio (Cambridge, UK). Briefly, primary human hepatocytes (PHHs), human Kupffer cells (HKs) and human stellate cells (HSCs) were seeded onto CN-Bio's PhysioMimix LC12 MPS culture plates at 6×10^5 cells for PHHs and 6×10^4 cells for HKs and HSCs in 1.6 ml of CN-Bio's HEP-lean media with 5% FCS. Throughout the experiment the cells were maintained at a flow rate of 1 μl/s. After 24 hours (Day 1) of seeding, the media was changed to HEP-lean media and the cells were incubated until day 4 to allow the cells to form microtissues. At day 4 post seeding, media was changed to HEP-fat media and treated with DMSO or NCT (5, 15, 40 μM). Media was replaced on days 6 and 8. Cells were harvested on day 10 for RNA extraction and culture media was collected for ELISA analysis.
(§2) Total RNA was isolated from liver tissues and primary human hepatocytes using Trizol (Invitrogen). cDNA was amplified using 3 μg of total RNA using qScript cDNA SuperMix (Quanta BioSciences, Beverly, MA, USA). Quantitative real time PCR (RT-PCR) analysis was performed using SYBR® Select Master Mix (Applied Biosystems) and an ABI 7900HT thermal cycler (Applied Biosystems, Thermo Fisher Scientific). Ct values were normalized to 18s rRNA and are expressed as fold change over samples from mice fed NC or cultured human hepatocytes without NCT.

[2] = Oral gavage delivery of NCT to DIO mice; assay type: in vivo, mouse
Experimental: 12-week-old C57BL/6J DIO male mice were purchased from Jackson laboratory (cat #380050) and were fed with high fat diet (Research Diets, cat #D12492 60 kcal % fat). […] 14 week old mice were injected subcutaneously using sterile insulin syringes filled with DMSO or NCT (200 mg/kg of mouse body weight) bid for 2 weeks. For oral gavage, 14-week-old C57BL/6J DIO male mice were fed by oral gavage using a feeding needle attached to a sterile 1 ml syringe filled with 200 μL of methyl cellulose (MC, vehicle control) or 200 μL of NCT (200 mg/kg) dissolved in methyl cellulose twice a day for 2 weeks. […] For analysis all mice were sacrificed after 2 weeks of treatment.

TNFα mRNA = assay: qPCR primary human hepatocytes, TNFα mRNA; assay type: cell-based; conditions: NCT 5, 15, 40 μM
Experimental: as §1, §2

[3] = previous two-week IP administration, obese mice; cited from earlier work
cytochrome C mRNA = assay: qPCR primary human hepatocytes, cytochrome C mRNA; assay type: cell-based; conditions: NCT 5, 15, 40 μM
Experimental: as §1, §2

[4] = Liver profile analysis of blood (VetScan); assay type: in vivo, mouse
Experimental: Mice were anesthetized and 100 μL of whole blood was collected via retro-orbital bleeding in lithium heparin blood collection tubes and transferred to single use VetScan mammalian liver profile reagent rotors. The levels of multiple analytes, including Alkaline Phosphatase (ALP), Alanine Aminotransferase (ALT), Gamma Glutamyl Transferase (GGT), Bile Acids (BA), TBIL (Total Bilirubin), Albumin (ALB), Blood Urea Nitrogen […] (BUN), Total Cholesterol (CHOL) were quantified using a VetScan VS2 Chemistry Analyzer (Abaxis North America, USA).

citrate synthase = assay: Citrate synthase activity in liver homogenate; assay type: in vivo, mouse; conditions: HFD+NCT vs HFD
Experimental: Citrate synthase activity in liver homogenate was measured according to manufacturer's instructions using a calorimetry based MitoCheck Citrate Synthase Activity Assay Kit (Cat #701040, Cayman Chemicals, USA).

total cellular NAD = assay: Total NAD level in liver lysate; assay type: in vivo, mouse; conditions: HFD+NCT vs HFD
Experimental: Total NAD level in liver lysate was analyzed according to manufacturer's instructions using a calorimetric NAD+/NADH assay kit (Cat #MET-5014, Cell Biolabs, Inc. USA)

IL-6 mRNA [5] = assay: qPCR mouse liver, IL-6 mRNA; assay type: in vivo; conditions: HFD+NCT vs HFD
Experimental: as §2

PPARγ mRNA = assay: qPCR mouse liver, PPARγ mRNA; assay type: in vivo; conditions: HFD+NCT vs HFD; to the level of normal chow
Experimental: as §2

IL-6 mRNA [6] = assay: qPCR primary human hepatocytes, IL-6 mRNA; assay type: cell-based; conditions: NCT 5, 15, 40 μM
Experimental: as §1, §2

HNF4α = target: T1, HNF4α (Homo sapiens, UniProt P41235); assay: Cell-based human insulin promoter reporter assay sensitive to HNF4α activity
T1 sequence (P41235 1-474): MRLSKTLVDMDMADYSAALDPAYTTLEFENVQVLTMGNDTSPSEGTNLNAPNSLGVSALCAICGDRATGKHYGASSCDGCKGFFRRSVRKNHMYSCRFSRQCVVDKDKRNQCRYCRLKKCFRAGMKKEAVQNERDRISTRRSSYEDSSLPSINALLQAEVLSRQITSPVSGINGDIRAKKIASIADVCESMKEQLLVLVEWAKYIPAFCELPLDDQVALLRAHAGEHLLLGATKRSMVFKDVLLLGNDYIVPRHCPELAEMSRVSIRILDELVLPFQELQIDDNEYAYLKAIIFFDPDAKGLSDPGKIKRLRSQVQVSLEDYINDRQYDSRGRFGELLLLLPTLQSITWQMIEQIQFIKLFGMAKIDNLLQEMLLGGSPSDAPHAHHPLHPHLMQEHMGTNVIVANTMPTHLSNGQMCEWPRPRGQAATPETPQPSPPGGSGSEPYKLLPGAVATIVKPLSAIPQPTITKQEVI
Source text: HNF4α is a nuclear receptor transcription factor that controls the expression of downstream genes that are important in multiple aspects of cellular metabolism. The classical view of HNF4α has been that its ligand binding pocket (LBP) is constitutively occupied by a fatty acid that plays a structural rather than regulatory role. However, it has been shown recently that the fatty acids in the HNF4α LBP are exchangeable in the context of full length HNF4α, particularly inside the cell. […] Using the assay in high-throughput screening, it was discovered HNF4α antagonists and more recently agonists. […] Previously, it was shown that intraperitoneal (IP) administration of NCT reversed hepatic steatosis in obese mice fed a high fat diet through a previously unsuspected pathway involving regulation by HNF4α of dihydroceramide synthesis.

## O=C(/C=C/c1ccc(O)c(O)c1)NCCc1ccc(O)cc1 [NCT, N-transcaffeoyltyramine]
[1]
  mitochondrial DNA, 16S rRNA: significant increase
  mitochondrial DNA, ND1: significant increase
Sirtuin1 mRNA
  Sirtuin1 mRNA in primary human hepatocytes: significant effect
[2]; 200 mg/kg bid, 2 weeks, vs methyl cellulose
  liver color after oral gavage NCT: No difference in liver color
[2]; 200 mg/kg in methyl cellulose, 2 doses per day, 2 weeks
  outcome of oral gavage delivery: compound precipitation
[2]; following oral gavage 200 mg/kg bid
  NCT compound level in serum and stool: present in stool but not serum
TNFα mRNA
  TNFα mRNA in cultured human hepatocytes: decreased in a dose-responsive manner
[3]
  body weight: no effect on body weight
  hepatic steatosis: decreased hepatic steatosis
Cytochrome C mRNA
  cytochrome C mRNA in primary human hepatocytes: but not cytochrome C
[4]; HFD versus HFD+NCT
  other components of the liver profile panel: no difference
[4]; HFD+NCT vs HFD
  blood ALP: unchanged
  blood ALT level: reduced; also recorded: significantly decreased
Citrate synthase
  citrate synthase activity (HFD-induced decrease): reversed; also recorded: substantial reversal
Total cellular NAD
  total cellular NAD in liver: substantial increase
IL-6 mRNA [5]
  IL-6 mRNA in mouse liver: significantly reduced
PPARγ mRNA
  PPARγ expression in mouse liver: dramatically reduced
IL-6 mRNA [6]
  IL-6 mRNA in cultured human hepatocytes: reduced
HNF4α
  HNF4α agonist activity: strong HNF4α agonists
HNF4α; listed as N-trans caffeoyltyramine
  HNF4α agonist activity: potent agonist

Source: patent US20240374546A1, “USES AND METHODS FOR PROMOTING INCREASED MITOCHONDRIAL MASS AND FUNCTION” (Brightseed, Inc., priority 2022, published 2024)
